Experiments:
[1] = Apparent n-Octanol-water partition coefficient, log D at pH 7.4 by HPLC analysis
[2] = molecular target: C-C chemokine receptor type 8 (Homo sapiens, UniProt P51685); assay: Antagonist activity at human CCR8; assay type: functional
[3] = molecular target: Voltage-gated inwardly rectifying potassium channel KCNH2 (Homo sapiens, UniProt Q12809, T623S); assay: Inhibition of human recombinant ERG T623S mutant expressed in CHOK1 cells by whole-cell plate-based electrophysiology; details: cho-k1
[4] = molecular target: Voltage-gated inwardly rectifying potassium channel KCNH2 (Homo sapiens, UniProt Q12809, S624A); assay: Inhibition of human recombinant ERG S624A mutant expressed in CHOK1 cells by whole-cell plate-based electrophysiology; details: cho-k1
[5] = molecular target: Voltage-gated inwardly rectifying potassium channel KCNH2 (Homo sapiens, UniProt Q12809, Y652A); assay: Inhibition of human recombinant ERG Y652A mutant expressed in CHOK1 cells by whole-cell plate-based electrophysiology; details: cho-k1
[6] = molecular target: Voltage-gated inwardly rectifying potassium channel KCNH2 (Homo sapiens, UniProt Q12809, S624T); assay: Inhibition of human recombinant ERG S624T mutant expressed in CHOK1 cells by whole-cell plate-based electrophysiology; details: cho-k1
[7] = molecular target: Voltage-gated inwardly rectifying potassium channel KCNH2 (Homo sapiens, UniProt Q12809, Y652F); assay: Inhibition of human recombinant ERG Y652F mutant expressed in CHOK1 cells by whole-cell plate-based electrophysiology; details: cho-k1
[8] = molecular target: Voltage-gated inwardly rectifying potassium channel KCNH2 (Homo sapiens, UniProt Q12809, F656W); assay: Inhibition of human recombinant ERG F656W mutant expressed in CHOK1 cells by whole-cell plate-based electrophysiology; details: cho-k1
[9] = molecular target: T1, Voltage-gated inwardly rectifying potassium channel KCNH2 (Homo sapiens, UniProt Q12809); assay: Inhibition of wild type human ERG expressed in CHOK1 cells by whole-cell plate-based electrophysiology
[10] = molecular target: Voltage-gated inwardly rectifying potassium channel KCNH2 (Homo sapiens, UniProt Q12809, F656T); assay: Inhibition of human recombinant ERG F656T mutant expressed in CHOK1 cells by whole-cell plate-based electrophysiology; details: cho-k1
[11] = molecular target: Voltage-gated inwardly rectifying potassium channel KCNH2 (Homo sapiens, UniProt Q12809, F656M); assay: Inhibition of human recombinant ERG F656M mutant expressed in CHOK1 cells by whole-cell plate-based electrophysiology; details: cho-k1
[12] = molecular target: T1, Voltage-gated inwardly rectifying potassium channel KCNH2; assay: Displacement of [3H]dofetilide from human recombinant ERG expressed in HEK293 cells by patch clamp method

Chain of C-C chemokine receptor type 8 (P51685 whole entry): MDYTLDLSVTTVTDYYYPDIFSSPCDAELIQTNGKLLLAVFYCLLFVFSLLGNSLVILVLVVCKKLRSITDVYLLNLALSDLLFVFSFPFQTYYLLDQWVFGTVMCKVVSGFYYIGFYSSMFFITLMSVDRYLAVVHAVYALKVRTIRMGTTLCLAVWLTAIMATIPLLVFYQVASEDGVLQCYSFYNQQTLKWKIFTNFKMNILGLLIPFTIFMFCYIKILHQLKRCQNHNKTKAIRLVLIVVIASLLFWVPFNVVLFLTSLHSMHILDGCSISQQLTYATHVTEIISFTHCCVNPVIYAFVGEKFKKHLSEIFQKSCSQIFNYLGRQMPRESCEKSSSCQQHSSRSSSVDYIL

SMILES | logD [1] | IC50 [2] | delta pIC50 wt-mutant [3] | delta pIC50 wt-mutant [4] | delta pIC50 wt-mutant [5] | delta pIC50 wt-mutant [6] | delta pIC50 wt-mutant [7] | delta pIC50 wt-mutant [8] | IC50 [9] | delta pIC50 wt-mutant [10] | delta pIC50 wt-mutant [11] | IC50 [12]
CC(C)COc1ccccc1CN1CCC2(CC1)CCN(C(=O)c1ccncc1)CC2 | 1.8 | 0.107 µM |  |  |  |  |  |  |  |  |  | 
COc1ccccc1Oc1cccc(CN2CCC3(CC2)CCN(C(=O)c2ccncn2)CC3)c1 | 1.7 | 0.0049 µM | 0.44 | 0.67 | 0.98 | -0.3 | -0.29 | -0.15 | 1.91 µM | 0.58 | -0.2 | 
CC1Cc2cccc(CN3CCC4(CC3)CCN(C(=O)c3ccncc3)CC4)c2O1 (centres undefined) |  |  | 0.24 | 0.61 | 1.63 | -0.12 | -0.21 | -0.58 |  | 1.41 | 1.04 | 
CC1(C)CCc2cc(CN3CCC4(CC3)CCN(C(=O)c3ccc(N)cn3)CC4)ccc2O1 | 1.1 | 0.0955 µM | 0.24 | 1.09 | 0.83 | -0.28 | 0.47 | -0.35 | 19.5 µM | -0.09 | -0.66 | 32.4 µM
COc1ccccc1Oc1ccccc1CN1CCC2(CC1)CCN(C(=O)c1ccncn1)CC2 | 1.2 | 0.0148 µM |  |  |  |  |  |  |  |  |  | 
CC(C)(C)C1(C)Cc2c(CN3CCC4(CC3)CCN(C(=O)c3ccc(N)cn3)CC4)cccc2O1 (centres undefined) | 2.6 | 0.00282 µM |  |  |  |  |  |  |  |  |  | 
COc1ccccc1Oc1ccccc1CN1CCC2(CC1)CCN(C(=O)c1ccncc1)CC2 |  | 0.0115 µM |  |  |  |  |  |  |  |  |  | 
CC1(C)CCc2cc(CN3CCC4(CC3)CCN(C(=O)c3ccncn3)CC4)ccc2O1 | 0.9 | 1.82 µM | 0.39 | 0.74 | 0.82 | -0.39 | 0.11 | -0.14 | 11.2 µM | 0.46 | -0.3 | 
O=C(c1ccncc1)N1CCC2(CCN(Cc3ccccc3OC(F)(F)C(F)F)CC2)CC1 | 2.8 | 0.525 µM | 0.06 | 0.11 | 1 | -0.08 | -0.32 | -0.54 | 5.13 µM | 1.42 | 0.48 | 17 µM
CC(C)COc1ccccc1CN1CCC2(CC1)CCN(C(=O)c1ccncn1)CC2 | -0.11 | 0.141 µM | 0.22 | 0.51 | 0.7 | 0.12 | -0.42 | -0.42 | 4.9 µM | 1.65 | 0.21 | 19.1 µM
CC1(C)Cc2cccc(CN3CCC4(CC3)CCN(C(=O)c3ccc(N)cn3)CC4)c2O1 | 1 | 0.00263 µM | 0.22 | 0.82 | 0.83 | -0.05 | 0.35 | -0.99 | 43.7 µM | 0.51 | -0.31 | 37.2 µM
CC1(C)Cc2cccc(CN3CCC4(CC3)CCN(C(=O)c3ncccc3N)CC4)c2O1 | 1.4 | 0.0224 µM | 0.41 | 1.32 | 1.81 | 0.43 | 0.64 | -0.32 | 4.17 µM | 0.77 | -0.26 | 32.4 µM
CCCC1(CC)Cc2c(CN3CCC4(CC3)CCN(C(=O)c3ccc(N)cn3)CC4)cccc2O1 (centres undefined) | 2.5 | 0.0024 µM |  |  |  |  |  |  |  |  |  | 
O=C(c1ccncn1)N1CCC2(CCN(Cc3ccccc3Oc3ccccc3)CC2)CC1 | 2 | 0.141 µM |  |  |  |  |  |  |  |  |  | 
CC1(C)Cc2c(CN3CCC4(CC3)CCN(C(=O)c3ccncc3)CC4)cccc2O1 | 1.6 | 0.0309 µM |  |  |  |  |  |  | 7.08 µM |  |  | 30.2 µM
C=C(C)COc1ccccc1CN1CCC2(CC1)CCN(C(=O)c1ccncc1)CC2 | 1.6 | 0.0708 µM |  |  |  |  |  |  |  |  |  | 
O=C(c1ccncc1)N1CCC2(CCN(Cc3cccc4c3OCC4)CC2)CC1 | 0.3 | 1.48 µM |  |  |  |  |  |  |  |  |  | 
CC1(C)Cc2c(CN3CCC4(CC3)CCN(C(=O)c3ccnc(N)c3)CC4)cccc2O1 | 1.4 | 0.0224 µM | 0.01 | 0.55 | 0.89 | -0.58 | -0.37 | -0.61 | 28.8 µM | 1.32 | 0.14 | 17 µM
COc1ccccc1Oc1ccccc1CN1CCC2(CC1)CCN(C(=O)c1ccc[nH]c1=O)CC2 | 0.9 | 0.055 µM | 0.51 | 0.54 | 1.19 | 0.24 | 0.35 | -0.18 | 14.1 µM | 1.92 | 0.22 | 2 µM
CC1(C)Cc2c(CN3CCC4(CC3)CCN(C(=O)c3ccc(N)cn3)CC4)cccc2O1 | 1.3 | 0.00813 µM | 0.49 | 0.79 | 1.23 | 0.31 | 0.68 | -0.66 | 16.6 µM | 0.2 | -0.22 | 12.9 µM
CC1(C)Oc2cccc(CN3CCC4(CC3)CCN(C(=O)c3ccnc(N)c3)CC4)c2O1 | 1.2 | 0.00661 µM | -0.06 | 0.59 | 1.22 | -0.33 | -0.19 | -0.39 | 16.6 µM | 1.37 | 0.62 | 0.759 µM
CC1(C)Oc2c(CN3CCC4(CC3)CCN(C(=O)c3ccc(N)cn3)CC4)cccc2C1(F)F | 2.3 | 0.00263 µM | 0.01 | 0.36 | 0.87 | -0.62 | 0.02 | -1.07 | 30.9 µM | -0.17 | -0.49 | 47.9 µM
CC1(C)C=Cc2cccc(CN3CCC4(CC3)CCN(C(=O)c3ccnc(N)c3)CC4)c2O1 | 1.5 | 0.00562 µM | 0.2 | 0.48 | 0.93 | -0.62 | 0.04 | -0.75 |  | 1.32 | 0.37 | 

— ChEMBL document CHEMBL1154736, “Increasing selectivity of CC chemokine receptor 8 antagonists by engineering nondesolvation related interactions with the intended and off-target binding sites” (J Med Chem, 2009)
